Source: PubChem BioAssay AID1918944 (Molecular Pharmacology Branch, DTP, NCI, 2023)

Tested on: 786-0 complex spheroid viability
Assay: Anticancer human tumor 786-0 cell line growth inhibition;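 note: spheroids exposed to agents for seven days before readout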
Conditions: for IC50: curve of first compound; for viability, T/C: stronger effect = lower value
From the text: Multicellular complex tumor spheroid response to LSD1 Inhibitor Iadademstat in combination with a variety of drugs and investigational agents in selected tumor cell lines
The current study was undertaken to assess response to LSD1 inhibitors in combination with standard-of-care drugs and investigational agents in solid tumor complex spheroid models as well as in the K-562 leukemia. Complex spheroids include a stromal component modeled by human endothelial cells (HUVEC) and fibroblasts modeled by human mesenchymal stem cells (MSCs). The concentration ranges selected for each drug and investigational agent were based upon clinically achievable concentrations if the clinical Cmax of the agent was known.
Compounds. The drugs and investigational agents used in this study are listed on Table 1. All of the agents used, including staurosporine (NSC755774) and gemcitabine (NSC613327), were obtained from the Developmental Therapeutics Program, NCI. FDA-approved anticancer drugs are available from the NCI at http://dtp.nci.nih.gov/branches/dscb/oncology_drugset_explanation.html. Drugs and investigational agents were >95% pure by proton nuclear magnetic resonance (NMR) and liquid chromatography/mass spectrometry (LC/MS). Stock solutions were prepared at 400x in DMSO, stored at -70 degrees C, and diluted in fresh medium prior to their use. The final concentration of DMSO in cell culture wells never exceeded 0.25% (v/v). The FDA-approved anticancer drug set is available from the Developmental Therapeutics Program at https://dtp.cancer.gov/organization/dscb/obtaining/available_plates.htm. All drugs and investigational agents were tested over a range starting from a high concentration at or near the clinical Cmax and decreasing in half-log increments. If the clinical Cmax for an agent had not been determined, the highest concentration tested was 10 microM.
Cell Lines. The patient-derived cancer cell (PDC) lines: 292921-168-R-J2-PDC, K24384-001-R-PDC, and 521955-158-R2-J5-PDC pancreatic carcinomas, 556581-035-R-J1 ovarian carcinoma, 324938-238-R-J1-PDC, 855422-203-R-J1-PDC and 883617-216-R-J1-PDC urothelial bladder carcinomas, 743489-274-T-PDC renal cell carcinoma, 138582-R-J1 Merkel cell tumor, K60290-347-R-J1 and K57222-313-R-J1-PDC glioblastomas, 653999-131-R-J2-PDC, LG0703-F948-PDC, and 349418-098-R-PDC non-small cell lung carcinomas, 885512-296-R-J2-PDC, 171881-019-R-J1-PDC breast carcinomas and 186277-243-T-J2-PDC and 233499-124-R-J2-PDC colon carcinomas were obtained from the NCI Patient-Derived Models Repository (PDMR, https://pdmr.cancer.gov). The established cell lines NCI/ADR-RES (RRID:CVCL_14520 and OVCAR-5 (RRID:CVCL_1628) ovarian carcinomas, 786-O (RRID:CVCL_1051) and A498 (RRID:CVCL_A498) renal cell carcinoma, NCI-H211 (ATCC, cat. CRL-5824; RRID:CVCL_1529), NCI-H196 (ATCC, cat. CRL-5823, RRID:CVCL_1509), SW 1271 (ATCC, cat. CRL-2177, RRID:CVCL_1716) and NCI-H1876 (ATCC, cat. CRL-5902, RRID:CVCL_1503) small cell lung carcinomas, MDA-MB-231 (RRID:CVCL_0062) and MDA-MB-468 (RRID:CVCL_0419)breast carcinomas (10-12). Pooled donor human umbilical vein endothelial cells (HUVEC, Lonza, cat. CC-2519) and human mesenchymal stem cells (hMSC, Lonza, cat. PT-2501) were purchased from Lonza (Walkersville, MD).
Cell Culture. All cells were maintained in an incubator at 37 degrees C and 5% CO2 with 95% humidity. The PDC lines were cultured according to standard operating procedures established by the NCI PDMR (https://pdmr.cancer.gov). Briefly all PDCs were thawed and cultured in Matrigel-coated flasks prepared with a working solution of 1X Ham's F-12 nutrient mix, without supplementation (Invitrogen, Waltham, MA, cat. 11765054), 100 U/mL penicillin-streptomycin (Invitrogen, cat. 15140122), and 2.5% Matrigel (Corning Inc., Corning, NY, cat. 354248) for the first three passages. […]

For `CC(C)CC(NC(=O)C(Cc1ccccc1)NC(=O)c1cnccn1)B(O)O` (stereo not given) + NC1CC1c1ccc(-c2cccc(O)c2)cc1, the IC50 (second compound 0.1 µM) was 3.71 nM, the IC50 (second compound 0.316 µM) was 3.52 nM and the IC50 (second compound 1 µM) was 3.41 nM. The IC50 (second compound 3.16 µM) was 3.23 nM, the IC50 (second compound 10 µM) was 2.35 nM and the viability, T/C (second compound 0.1 µM, first compound 0.000316 µM) was 114%. It also gave a viability, T/C (second compound 0.1 µM, first compound 0.001 µM) of 110%, a viability, T/C (second compound 0.1 µM, first compound 0.00316 µM) of 55.5% and a viability, T/C (second compound 0.1 µM, first compound 0.01 µM) of 11.2%. For the same compound, the viability, T/C (second compound 0.1 µM, first compound 0.0316 µM) was 1.11%, the viability, T/C (second compound 0.1 µM, first compound 0.1 µM) was 0.47% and the viability, T/C (second compound 0.316 µM, first compound 0.000316 µM) was 114%. The viability, T/C (second compound 0.316 µM, first compound 0.001 µM) was 111%, the viability, T/C (second compound 0.316 µM, first compound 0.00316 µM) was 53.5% and the viability, T/C (second compound 0.316 µM, first compound 0.01 µM) was 9.41%. The viability, T/C (second compound 0.316 µM, first compound 0.0316 µM) was 1.04%, the viability, T/C (second compound 0.316 µM, first compound 0.1 µM) was 0.33% and the viability, T/C (second compound 1 µM, first compound 0.000316 µM) was 114%. It also gave a viability, T/C (second compound 1 µM, first compound 0.001 µM) of 109%, a viability, T/C (second compound 1 µM, first compound 0.00316 µM) of 51.8% and a viability, T/C (second compound 1 µM, first compound 0.01 µM) of 10.7%. It also gave a viability, T/C (second compound 1 µM, first compound 0.0316 µM) of 1.17%, a viability, T/C (second compound 1 µM, first compound 0.1 µM) of 0.5% and a viability, T/C (second compound 3.16 µM, first compound 0.000316 µM) of 105%. It also gave a viability, T/C (second compound 3.16 µM, first compound 0.001 µM) of 110%, a viability, T/C (second compound 3.16 µM, first compound 0.00316 µM) of 50.4% and a viability, T/C (second compound 3.16 µM, first compound 0.01 µM) of 9.96%. For the same compound, the viability, T/C (second compound 3.16 µM, first compound 0.0316 µM) was 1.23%, the viability, T/C (second compound 3.16 µM, first compound 0.1 µM) was 0.53% and the viability, T/C (second compound 10 µM, first compound 0.000316 µM) was 102%. It also gave a viability, T/C (second compound 10 µM, first compound 0.001 µM) of 99.6%, a viability, T/C (second compound 10 µM, first compound 0.00316 µM) of 32.9% and a viability, T/C (second compound 10 µM, first compound 0.01 µM) of 6.5%. For the same compound, the viability, T/C (second compound 10 µM, first compound 0.0316 µM) was 0.86% and the viability, T/C (second compound 10 µM, first compound 0.1 µM) was 0.34%.
